Measurements as given in PubChem BioAssay (NCI).
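Five concentrations, 48 hours, 96-well plates. TGI is the concentration that stops growth completely.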

Legend:
Assay in all cases: DTP human tumour cell line panel, 48 h
786-0 renal = system: 786-0 renal
A498 renal = system: A498 renal
A549 NSCLC = system: A549 NSCLC
ACHN renal = system: ACHN renal
BT-549 breast = system: BT-549 breast
CAKI-1 renal = system: CAKI-1 renal
CCRF-CEM leukemia = system: CCRF-CEM leukemia
COLO 205 colon = system: COLO 205 colon
DU-145 prostate = system: DU-145 prostate
EKVX NSCLC = system: EKVX NSCLC
HCC-2998 colon = system: HCC-2998 colon
HCT-116 colon = system: HCT-116 colon
HCT-15 colon = system: HCT-15 colon
HOP-62 NSCLC = system: HOP-62 NSCLC
HOP-92 NSCLC = system: HOP-92 NSCLC
HT29 colon = system: HT29 colon
IGROV1 ovarian = system: IGROV1 ovarian
K-562 leukemia = system: K-562 leukemia
KM12 colon = system: KM12 colon
LOX IMVI melanoma = system: LOX IMVI melanoma
M14 melanoma = system: M14 melanoma
MALME-3M melanoma = system: MALME-3M melanoma
MCF7 breast = system: MCF7 breast
MDA-MB-231 breast = system: MDA-MB-231 breast
MDA-MB-435 = system: MDA-MB-435
MDA-N = system: MDA-N
MOLT-4 leukemia = system: MOLT-4 leukemia
NCI-H226 lung = system: NCI-H226 lung
NCI-H23 lung = system: NCI-H23 lung
NCI-H460 lung = system: NCI-H460 lung
NCI-H522 lung = system: NCI-H522 lung
NCI/ADR-RES ovarian = system: NCI/ADR-RES ovarian
OVCAR-3 ovarian = system: OVCAR-3 ovarian
OVCAR-4 ovarian = system: OVCAR-4 ovarian
OVCAR-5 ovarian = system: OVCAR-5 ovarian
OVCAR-8 ovarian = system: OVCAR-8 ovarian
PC-3 prostate = system: PC-3 prostate
RPMI-8226 leukemia = system: RPMI-8226 leukemia
RXF 393 renal = system: RXF 393 renal
SF-268 CNS = system: SF-268 CNS
SF-295 CNS = system: SF-295 CNS
SF-539 CNS = system: SF-539 CNS
SK-MEL-2 melanoma = system: SK-MEL-2 melanoma
SK-MEL-28 melanoma = system: SK-MEL-28 melanoma
SK-MEL-5 melanoma = system: SK-MEL-5 melanoma
SK-OV-3 ovarian = system: SK-OV-3 ovarian
SN12C renal = system: SN12C renal
SNB-19 CNS = system: SNB-19 CNS
SR leukemia = system: SR leukemia
SW-620 colon = system: SW-620 colon
T-47D breast = system: T-47D breast
TK-10 renal = system: TK-10 renal
U251 CNS = system: U251 CNS
UACC-257 melanoma = system: UACC-257 melanoma
UACC-62 melanoma = system: UACC-62 melanoma
UO-31 renal = system: UO-31 renal
HS 578T breast = system: HS 578T breast
SNB-75 CNS = system: SNB-75 CNS

For `CC(C)CCC[C@@H](C)[C@H]1CC[C@H]2C3=C[C@H](OS(=O)(=O)O)[C@@]4(O)C[C@@H](O)CC[C@]4(C)[C@@]3(O)CC[C@]12C`, the TGI (786-0 renal) was over 100 µM, the TGI (A498 renal) was over 100 µM and the TGI (A549 NSCLC) was over 100 µM. For the same compound, the TGI (ACHN renal) was over 100 µM, the TGI (BT-549 breast) was over 100 µM and the TGI (CAKI-1 renal) was over 100 µM. For the same compound, the TGI (CCRF-CEM leukemia) was over 100 µM, the TGI (COLO 205 colon) was over 100 µM and the TGI (DU-145 prostate) was over 100 µM. The TGI (EKVX NSCLC) was over 100 µM, the TGI (HCC-2998 colon) was over 100 µM and the TGI (HCT-116 colon) was over 100 µM. The TGI (HCT-15 colon) was over 100 µM, the TGI (HOP-62 NSCLC) was over 100 µM and the TGI (HOP-92 NSCLC) was over 100 µM. It also gave a TGI (HT29 colon) of over 100 µM, a TGI (IGROV1 ovarian) of over 100 µM and a TGI (K-562 leukemia) of over 100 µM. For the same compound, the TGI (KM12 colon) was over 100 µM, the TGI (LOX IMVI melanoma) was over 100 µM and the TGI (M14 melanoma) was over 100 µM. The TGI (MALME-3M melanoma) was over 100 µM, the TGI (MCF7 breast) was over 100 µM and the TGI (MDA-MB-231 breast) was over 100 µM. For the same compound, the TGI (MDA-MB-435) was over 100 µM, the TGI (MDA-N) was over 100 µM and the TGI (MOLT-4 leukemia) was over 100 µM. It also gave a TGI (NCI-H226 lung) of over 100 µM, a TGI (NCI-H23 lung) of over 100 µM and a TGI (NCI-H460 lung) of over 100 µM. The TGI (NCI-H522 lung) was over 100 µM, the TGI (NCI/ADR-RES ovarian) was over 100 µM and the TGI (OVCAR-3 ovarian) was over 100 µM. It also gave a TGI (OVCAR-4 ovarian) of over 100 µM, a TGI (OVCAR-5 ovarian) of over 100 µM and a TGI (OVCAR-8 ovarian) of over 100 µM. For the same compound, the TGI (PC-3 prostate) was over 100 µM, the TGI (RPMI-8226 leukemia) was over 100 µM and the TGI (RXF 393 renal) was over 100 µM. For the same compound, the TGI (SF-268 CNS) was over 100 µM, the TGI (SF-295 CNS) was over 100 µM and the TGI (SF-539 CNS) was over 100 µM. For the same compound, the TGI (SK-MEL-2 melanoma) was over 100 µM, the TGI (SK-MEL-28 melanoma) was over 100 µM and the TGI (SK-MEL-5 melanoma) was over 100 µM. The TGI (SK-OV-3 ovarian) was over 100 µM, the TGI (SN12C renal) was over 100 µM and the TGI (SNB-19 CNS) was over 100 µM. The TGI (SR leukemia) was over 100 µM, the TGI (SW-620 colon) was over 100 µM and the TGI (T-47D breast) was over 100 µM. For the same compound, the TGI (TK-10 renal) was over 100 µM, the TGI (U251 CNS) was over 100 µM and the TGI (UACC-257 melanoma) was over 100 µM. The TGI (UACC-62 melanoma) was over 100 µM and the TGI (UO-31 renal) was over 100 µM.

With `COc1ccc(NC/C=C/C(=C/COC(C)=O)OC(C)=O)cc1` the TGI (786-0 renal) was 2.44 µM, the TGI (A498 renal) was 3.53 µM and the TGI (A549 NSCLC) was 33 µM. For the same compound, the TGI (ACHN renal) was 3.29 µM, the TGI (BT-549 breast) was 3.16 µM and the TGI (CAKI-1 renal) was 4.18 µM. The TGI (CCRF-CEM leukemia) was 5.12 µM, the TGI (COLO 205 colon) was 3.4 µM and the TGI (DU-145 prostate) was 10.2 µM. The TGI (EKVX NSCLC) was 4.99 µM, the TGI (HCC-2998 colon) was 6.84 µM and the TGI (HCT-116 colon) was 3.55 µM. The TGI (HCT-15 colon) was 5.1 µM, the TGI (HOP-62 NSCLC) was 5.18 µM and the TGI (HOP-92 NSCLC) was 3.87 µM. For the same compound, the TGI (HS 578T breast) was 6.12 µM, the TGI (IGROV1 ovarian) was 3.56 µM and the TGI (K-562 leukemia) was 3.62 µM. For the same compound, the TGI (KM12 colon) was 1.99 µM, the TGI (LOX IMVI melanoma) was 4.79 µM and the TGI (M14 melanoma) was 3.19 µM. It also gave a TGI (MALME-3M melanoma) of 5.57 µM, a TGI (MCF7 breast) of over 100 µM and a TGI (MDA-MB-231 breast) of 3.37 µM. For the same compound, the TGI (MDA-MB-435) was 3.14 µM, the TGI (MDA-N) was 4.07 µM and the TGI (MOLT-4 leukemia) was over 100 µM. It also gave a TGI (NCI-H226 lung) of 51.7 µM, a TGI (NCI-H460 lung) of 4.8 µM and a TGI (NCI-H522 lung) of 4.78 µM. The TGI (NCI/ADR-RES ovarian) was 7.04 µM, the TGI (OVCAR-3 ovarian) was 4.28 µM and the TGI (OVCAR-4 ovarian) was 3.26 µM. For the same compound, the TGI (OVCAR-5 ovarian) was 3.38 µM, the TGI (OVCAR-8 ovarian) was 16.1 µM and the TGI (PC-3 prostate) was 5.98 µM. The TGI (RPMI-8226 leukemia) was 0.829 µM, the TGI (RXF 393 renal) was 3.04 µM and the TGI (SF-268 CNS) was 6.52 µM. It also gave a TGI (SF-295 CNS) of 4.97 µM, a TGI (SF-539 CNS) of 3.8 µM and a TGI (SK-MEL-2 melanoma) of 5.58 µM. For the same compound, the TGI (SK-MEL-28 melanoma) was 3.89 µM, the TGI (SK-MEL-5 melanoma) was 28.8 µM and the TGI (SK-OV-3 ovarian) was 28.2 µM. For the same compound, the TGI (SNB-19 CNS) was 9.29 µM, the TGI (SNB-75 CNS) was 20.5 µM and the TGI (SR leukemia) was 2.71 µM. For the same compound, the TGI (SW-620 colon) was 3.49 µM, the TGI (T-47D breast) was 5.45 µM and the TGI (TK-10 renal) was 3.74 µM. It also gave a TGI (U251 CNS) of 4.53 µM, a TGI (UACC-257 melanoma) of 5.04 µM and a TGI (UACC-62 melanoma) of 14.5 µM. It also gave a TGI (UO-31 renal) of 25 µM.
